Measurements: PMC4178217, “Quinoline 3-sulfonamides inhibit lactate dehydrogenase A and reverse aerobic glycolysis in cancer cells” (Cancer & Metabolism, 2013)

Columns and labels:
recombinant human LDHA = recombinant human LDHA (Homo sapiens, UniProt P00338); assay: recombinant human LDHA enzyme assay (lactate to pyruvate, NADH via diaphorase/resazurin)
recombinant human LDHB = recombinant human LDHB (Homo sapiens, UniProt P07195); assay: recombinant human LDHB enzyme assay (lactate to pyruvate, NADH via diaphorase/resazurin)
Chain of recombinant human LDHB (P07195 whole entry): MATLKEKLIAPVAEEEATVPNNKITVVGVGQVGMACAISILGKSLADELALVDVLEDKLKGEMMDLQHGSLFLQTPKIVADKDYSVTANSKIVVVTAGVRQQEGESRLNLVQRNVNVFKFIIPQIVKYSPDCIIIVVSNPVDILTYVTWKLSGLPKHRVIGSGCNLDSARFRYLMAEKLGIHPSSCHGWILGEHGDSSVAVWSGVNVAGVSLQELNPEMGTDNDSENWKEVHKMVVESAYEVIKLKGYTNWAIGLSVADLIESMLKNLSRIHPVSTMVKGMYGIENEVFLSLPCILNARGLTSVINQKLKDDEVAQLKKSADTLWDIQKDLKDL

Snu398 cells [1] = assay: Compound cellular permeability assay, whole-cell extract; type: in vitro ADME, human; conditions: Snu398 treated with 1 μM for 1.5 h
Description: Compound cellular permeability assays For cytosolic permeability assay, twelve million Snu398 cells were allowed to attach overnight and treated with DMSO control or 1 µM Compound 2 for 1.5 h in 1.7 mM glucose medium. The medium was removed, cells were washed in phosphate-buffered saline (PBS), and cytosolic extracts were prepared by solubilization in Qproteome lysis buffer (Qiagen, Valencia, CA). For whole-cell permeability assay, 75,000 Snu398 cells/well were plated in 96-well plates and treated with DMSO control or 1 µM compounds for 1.5h in low glucose medium. The medium was removed, cells were washed in PBS and solubilized in 50:50 mixture of methanol and acetonitrile. Compound concentration in the cytosolic or whole-cell extract was determined by LC/MS/MS analysis. An Acquity UPLC system (Waters Inc., Milford, MA) was coupled to an API 4000 or API 5000 triple-quad mass spectrometer (Applied Biosystems). […] Compound concentration in cells was determined by counting the number of cells in sample wells and assuming 3 pL/cell volume.

Snu398 cells [2] = assay: Lactate production assay, Snu398 (RapidFire-MS)

mode of LDHA inhibition (recombinant human LDHA)	IC50 (recombinant human LDHB)	EC50 (Snu398 cells [2]; Homo sapiens, SNU-398, read-out: lactate production EC50)	IC50 (recombinant human LDHA)	SMILES	apparent intracellular concentration versus medium (Snu398 cells [1])	effect on cellular lactate production (Snu398 cells [2]; Snu398)
NADH-competitive LDHA inhibitor	–	–	–	COc1cc2c(Nc3cccc(C(=O)O)c3)c(C(N)=O)cnc2cc1-c1c(C)noc1C	–	–
–	0.055 ± 0.009 µM	3.3 ± 1.3 µM	–	COc1ncc(-c2ccc3c(Nc4cc(Oc5ccc(F)cc5)cc(S(N)(=O)=O)c4)c(S(=O)(=O)NC4CC4)cnc3c2)c(OC)n1 [Compound 3]	higher apparent intracellular concentrations than that of the medium	–
–	> 50 µM	–	> 50 µM	COc1ncc(-c2ccc3c(Nc4cc(Oc5ccc(F)cc5)cc(C(F)(F)F)c4)c(S(=O)(=O)NC4CC4)cnc3c2)c(OC)n1 [Compound 4]	–	does not affect cellular lactate
